In ChEMBL document CHEMBL1142780, “Phenylpyrroles, a new chemolibrary virtual screening class of 5-HT7 receptor ligands” (Bioorg Med Chem Lett, 2005):

Legend:
[1] = biological target: 5-hydroxytryptamine receptor 7 (Rattus norvegicus) (UniProt P32305); assay: Inhibition of the binding of [3H]LSD on rat 5-HT7R in HEK293 cells at concentration of 10e-6 M; assay type: cell-based
[2] = biological target: 5-hydroxytryptamine receptor 7 (Rattus norvegicus) (UniProt P32305); assay: Inhibition of the binding of [3H]LSD on rat 5-HT7R in HEK293 cells at concentration of 10e-8 M; assay type: cell-based
[3] = biological target: 5-hydroxytryptamine receptor 7 (Rattus norvegicus) (UniProt P32305); assay: Inhibition of the binding of [3H]LSD on rat 5-HT7R expressed in HEK293 cells at concentration of 10e-6 M; assay type: cell-based
[4] = biological target: 5-hydroxytryptamine receptor 7 (Rattus norvegicus) (UniProt P32305); assay: Inhibition of the binding of [3H]LSD on rat 5-HT7R expressed in HEK293 cells at concentration of 10e-8 M; assay type: cell-based
[5] = biological target: 5-hydroxytryptamine receptor 6 (Homo sapiens) (UniProt P50406); assay: Inhibition of the binding of [3H]LSD (radioligand) on human 5-HT6 receptor at concentration of 10e-8 M
Sequence of 5-hydroxytryptamine receptor 6 (Homo sapiens) (P50406 whole entry): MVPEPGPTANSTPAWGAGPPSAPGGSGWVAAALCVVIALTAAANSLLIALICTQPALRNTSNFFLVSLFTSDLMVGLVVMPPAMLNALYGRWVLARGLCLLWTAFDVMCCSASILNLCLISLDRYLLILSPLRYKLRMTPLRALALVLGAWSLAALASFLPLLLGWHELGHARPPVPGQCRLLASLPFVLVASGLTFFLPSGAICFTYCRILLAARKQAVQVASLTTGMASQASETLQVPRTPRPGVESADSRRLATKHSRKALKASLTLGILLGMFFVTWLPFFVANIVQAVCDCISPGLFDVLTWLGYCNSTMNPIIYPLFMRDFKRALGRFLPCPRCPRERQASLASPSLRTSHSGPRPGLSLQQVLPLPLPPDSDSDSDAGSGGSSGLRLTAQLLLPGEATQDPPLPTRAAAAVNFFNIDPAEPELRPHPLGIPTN

[6] = biological target: 5-hydroxytryptamine receptor 7 (Rattus norvegicus, UniProt P32305); assay: Binding affinity against rat 5-HT7R expressed in HEK293 cells; assay type: cell-based
Sequence of 5-hydroxytryptamine receptor 7 (Rattus norvegicus, UniProt P32305) (P32305 whole entry): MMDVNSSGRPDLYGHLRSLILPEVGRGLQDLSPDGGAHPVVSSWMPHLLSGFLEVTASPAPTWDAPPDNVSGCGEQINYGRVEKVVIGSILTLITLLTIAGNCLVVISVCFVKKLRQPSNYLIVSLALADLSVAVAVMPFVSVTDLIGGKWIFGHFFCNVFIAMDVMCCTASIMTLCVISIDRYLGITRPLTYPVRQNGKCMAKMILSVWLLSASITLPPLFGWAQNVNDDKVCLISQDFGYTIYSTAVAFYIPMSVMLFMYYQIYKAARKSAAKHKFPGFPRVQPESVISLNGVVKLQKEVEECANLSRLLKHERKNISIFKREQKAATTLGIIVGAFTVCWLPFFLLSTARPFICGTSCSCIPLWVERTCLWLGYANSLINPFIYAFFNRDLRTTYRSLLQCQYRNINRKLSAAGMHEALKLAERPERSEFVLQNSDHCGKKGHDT

[7] = biological target: T1, 5-hydroxytryptamine receptor 1A (Rattus norvegicus, UniProt P19327); assay: Binding affinity against rat 5-HT1A receptor
T1 sequence (P19327 whole entry): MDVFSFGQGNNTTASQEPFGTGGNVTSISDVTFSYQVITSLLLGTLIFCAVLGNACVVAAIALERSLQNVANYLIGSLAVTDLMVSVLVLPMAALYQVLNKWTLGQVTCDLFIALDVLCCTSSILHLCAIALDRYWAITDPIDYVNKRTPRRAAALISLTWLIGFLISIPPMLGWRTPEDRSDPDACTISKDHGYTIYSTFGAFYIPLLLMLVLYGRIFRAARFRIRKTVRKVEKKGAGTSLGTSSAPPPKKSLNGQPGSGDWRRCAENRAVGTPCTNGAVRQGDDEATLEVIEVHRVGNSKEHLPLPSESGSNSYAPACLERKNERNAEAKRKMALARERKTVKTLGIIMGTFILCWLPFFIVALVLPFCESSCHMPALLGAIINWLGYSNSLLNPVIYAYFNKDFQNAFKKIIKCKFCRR

[8] = biological target: 5-hydroxytryptamine receptor 6 (Homo sapiens) (UniProt P50406); assay: Inhibition of the binding of [3H]LSD (radioligand) on human 5-HT6 receptor at concentration of 10e-6 M
[9] = biological target: T2, 5-hydroxytryptamine receptor 7 (Homo sapiens, UniProt P34969)
T2 sequence (P34969 whole entry): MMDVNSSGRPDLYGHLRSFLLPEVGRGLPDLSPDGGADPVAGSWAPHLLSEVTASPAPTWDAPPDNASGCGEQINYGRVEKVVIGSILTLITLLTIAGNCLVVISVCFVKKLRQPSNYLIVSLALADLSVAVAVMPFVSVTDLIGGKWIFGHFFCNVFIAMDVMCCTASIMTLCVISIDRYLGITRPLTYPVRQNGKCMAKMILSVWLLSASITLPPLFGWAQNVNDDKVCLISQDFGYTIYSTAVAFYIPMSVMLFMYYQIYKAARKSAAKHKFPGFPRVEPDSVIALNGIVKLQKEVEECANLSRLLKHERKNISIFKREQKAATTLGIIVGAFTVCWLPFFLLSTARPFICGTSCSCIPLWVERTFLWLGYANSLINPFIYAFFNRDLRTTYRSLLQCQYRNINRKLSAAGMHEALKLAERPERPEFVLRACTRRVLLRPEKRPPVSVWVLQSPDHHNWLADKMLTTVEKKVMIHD
Description: PKb value against Human 5-HT7 receptor

[10] = biological target: T2, 5-hydroxytryptamine receptor 7; assay: Binding affinity against Human 5-HT7R expressed in sf9 cells
[11] = biological target: T2, 5-hydroxytryptamine receptor 7; assay: Inhibition of the binding of [3H]LSD on human 5-HT7R expressed in sf9 cells at concentration of 10e-8 M
[12] = biological target: T2, 5-hydroxytryptamine receptor 7; assay: Inhibition of the binding of [3H]LSD on human 5-HT7R expressed in sf9 cells at concentration of 10e-6 M

Sequence of 5-hydroxytryptamine receptor 7 (Rattus norvegicus) (P32305 whole entry): as the sequence (P32305 whole entry) above

Compound: COc1ccccc1N1CCN(Cc2ccn(-c3cccc(C)c3C)c2)CC1
- inhibition [1]: 91%
- inhibition [2]: 0%

Compound: COc1ccccc1N1CCN(Cc2cccn2-c2ccccc2-c2ccccc2)CC1
- inhibition [3]: 26%
- inhibition [4]: 0%

Compound: COc1ccccc1-n1cccc1CN1CCN(C)CC1
- inhibition [3]: 12%
- inhibition [4]: 0%

Compound: COc1ccccc1N1CCN(Cc2ccn(-c3cccc4ccccc34)c2)CC1
- inhibition [1]: 86%
- inhibition [2]: 6%

Compound: COc1ccccc1N1CCN(Cc2ccn(-c3ccccc3C#N)c2)CC1
- inhibition [1]: 96%
- inhibition [5]: 10%
- Ki [6]: 19 nM
- Ki [7]: 33.7 nM
- inhibition [2]: 14%
- inhibition [8]: 12%
- PKb [9]: 7.43
- Ki [10]: 5.4 nM

Compound: Cc1ccccc1-n1ccc(CN2CCN(c3noc4ccccc34)CC2)c1
- inhibition [1]: 42%
- inhibition [2]: 9%

Compound: N#Cc1ccccc1-n1cccc1CN1CCN(c2noc3ccccc23)CC1
- inhibition [3]: 43%
- inhibition [4]: 1%

Compound: COc1ccccc1N1CCN(Cc2cccn2-c2ccc(Cl)cc2Cl)CC1
- inhibition [11]: 0%
- inhibition [12]: 66%

Compound: Cc1ccccc1-n1cccc1CN1CCN(c2noc3ccccc23)CC1
- inhibition [3]: 47%
- inhibition [4]: 0%

Compound: COc1ccccc1N1CCN(Cc2ccn(-c3c(C)cc(C)cc3C)c2)CC1
- inhibition [1]: 32%
- inhibition [2]: 0%

Compound: COc1ccccc1N1CCN(Cc2ccn(-c3ccccc3OC)c2)CC1
- inhibition [1]: 6%
- inhibition [2]: 0%

Compound: COc1ccc(-n2cccc2CCN)cc1
- inhibition [11]: 3%
- inhibition [12]: 36%

Compound: COc1ccccc1N1CCN(Cc2cccn2-c2ccccc2OC)CC1
- inhibition [3]: 80%
- inhibition [4]: 16%

Compound: COc1ccccc1N1CCN(Cc2cccn2-c2cccc(C)c2C)CC1
- inhibition [3]: 68%
- inhibition [4]: 2%

Compound: COc1ccc(OC)c(-n2cccc2CCN)c1
- inhibition [11]: 6%
- inhibition [12]: 31%

Compound: Cc1cccc(-n2cccc2CCN)c1C
- inhibition [11]: 0%
- inhibition [12]: 72%

Compound: NCCc1cccn1-c1ccccc1
- inhibition [11]: 0%
- inhibition [12]: 31%

Compound: COC(=O)c1cccc(C)c1-n1ccc(CN2CCN(c3ccccc3OC)CC2)c1
- inhibition [5]: 9%
- Ki [7]: 18.5 nM
- inhibition [8]: 20%
- PKb [9]: 7.66
- Ki [10]: 18 nM

Compound: CCOc1ccc(OCC)c(-n2cccc2CCN)c1
- inhibition [11]: 0%
- inhibition [12]: 14%

Compound: COc1ccccc1N1CCN(Cc2ccn(-c3ccccc3C)c2)CC1
- inhibition [1]: 95%
- inhibition [5]: 7%
- Ki [6]: 21 nM
- Ki [7]: 9.9 nM
- inhibition [2]: 22%
- inhibition [8]: 9%
- Ki [10]: 4.7 nM

Compound: COc1ccccc1N1CCN(Cc2cccn2-c2ccccc2C#N)CC1
- inhibition [3]: 24%
- inhibition [4]: 0%

Compound: NCCc1cccn1-c1ccccc1Cl
- inhibition [11]: 0%
- inhibition [12]: 58%

Compound: COc1ccccc1N1CCN(Cc2cccn2-c2cccc3ccccc23)CC1
- inhibition [3]: 60%
- inhibition [4]: 17%

Compound: COc1ccccc1N1CCN(Cc2cccn2-c2ccccc2)CC1
- inhibition [11]: 0%
- inhibition [12]: 91%

Compound: c1ccc(N2CCN(Cc3cccn3-c3ccccc3)CC2)cc1
- inhibition [11]: 14%
- inhibition [12]: 71%

Compound: COc1ccccc1N1CCN(Cc2cccn2-c2ccccc2C(F)(F)F)CC1
- inhibition [3]: 38%
- inhibition [4]: 7%

Compound: Cc1cccc(-n2cccc2CN2CCN(C)CC2)c1C
- inhibition [3]: 33%
- inhibition [4]: 0%

Compound: COc1ccccc1N1CCN(Cc2ccn(-c3ccccc3C(F)(F)F)c2)CC1
- inhibition [1]: 91%
- Ki [6]: 105 nM
- inhibition [2]: 21%

Compound: N#Cc1ccccc1-n1ccc(CN2CCN(c3noc4ccccc34)CC2)c1
- inhibition [1]: 34%
- inhibition [2]: 7%

Compound: COc1ccccc1N1CCN(Cc2cccn2-c2ccccc2C)CC1
- inhibition [3]: 63%
- inhibition [4]: 0%
